Experimental findings from US6596867B2, “Tartrate salt of a substituted dipeptide as growth hormone secretagogue” (Pfizer Inc., priority 1997, dated 2003) are described below.

Series [1] can be described thus: stability of the crystalline salt (stated property). Format: physicochemical. The settings on record: crystalline form.
A short description of series [2]: solubility of the crystalline salt (stated property). The class given is physicochemical. The settings on record: crystalline form.

Structures can show the parent of a compound that is named as a salt.

With `CC(C)(N)C(=O)N[C@H](COCc1ccc(F)cc1F)C(=O)N1CCC2=NN(CC(F)(F)F)C(=O)[C@]2(Cc2ccccn2)C1` [2-Amino-N-{1-(2,4-difluoro-benzyloxymethyl)-2-oxo-2-[3-oxo-3a-pyridin-2-ylmethyl-2-(2,2.2-trifluoro-ethyl)-2,3,3a,4,6,7-hexahydro-pyrazolo[4,3-c]pyridin-5-yl]-ethyl}-2-methyl-propionamide L-(+) tartrate], the stability entry in series [1] is given as “good stability”. The solubility result in series [2] was “high solubility”.
